Measured values published in patent US20230241046A1, “SOLID DISPERSION OF OPICAPONE” (BIAL - PORTELA & CA, S.A., priority 2020, published 2023).

Assays:
[1] = In vivo pharmacokinetics after oral administration; conditions: male Wistar rats, 3 mg/kg of opicapone, plasma
Procedure: The pharmacokinetics of solid dispersions of amorphous opicapone were evaluated in male Wistar rats, after oral administration of Sample 1, 4 or 6, or a control sample of micronised crystalline opicapone, at a dose of 3 mg/kg of opicapone. The exposure of these solid dispersions, formulated as a HPMC suspensions (50 mg of opicapone per 100 mL of 0.2% HPMC), were compared with the exposure of micronised crystalline opicapone, at a dose of 3 mg/kg of opicapone.
During the studies, blood was collected at different time points, from tail vein, spun at 1500×g in a refrigerated centrifuge (4° C.) for 15 min, and the plasma obtained was stored at −80° C. until further analysis. The plasma samples collected from twenty animals (140 samples), were analysed for opicapone exposure. The bioanalysis involved the use of LC-MS/MS after plasma precipitation.

[2] = Particle size distribution (circle equivalent diameter) by SEM; type: physicochemical; conditions: particle size distribution (equivalent circular diameter) after micronisation, MC JETMILL 200
Procedure: A Phenom Pro-X Electron microscope (PhenomWorld, Thermo Fisher Scientific, USA) equipped with a CeB6 electron source and backscatter electron detector was used to determine the morphology and particle size of the samples.
The powder was placed on conductive adhesive tape. The holder for non-conductive samples was used. The excess of sample (loosely bound to the tape) was removed using compressed air.
Particle morphology was assessed by Automated Image Mapping software and particle size determination was made by Particlemetric software.

[3] = Fasted state simulated intestinal fluid (FaSSIF) kinetic solubility assay; type: physicochemical; conditions: kinetic solubility in FaSSIF, 0-24 h
Procedure: (§1) The content of opicapone in kinetic solubility studies was analysed by HPLC coupled to a UV/Vis detector (Waters series, USA). A C18 column was used. The mobile phase consisted of 0.1% o-phophoric acid and acetonitrile (68:32 v/v).
Kinetic solubility studies on the opicapone solid dispersion were performed at room temperature at a loading equivalent to˜75 mg of opicapone per mL of FaSSIF, in a total of 5 mL of medium. Samples were tested at 0, 0.5, 1, 2, 4 and 24 hours (Klein, AAPS J., 2010, 12, 397-406).
(§2) Area under the Concentration Curve (AUC), Cmax and other pharmacokinetic parameters were calculated using GraphPad Prism 7 for Windows (GraphPad Software, USA).

[4] = Fasted state simulated gastric fluid (FaSSGF) kinetic solubility assay; type: physicochemical; conditions: kinetic solubility in FaSSGF, 0-24 h
Procedure: as §1
Kinetic solubility studies on the opicapone solid dispersion were performed at room temperature at a loading equivalent to˜10 mg of opicapone per mL of FaSSGF, in a total of 5 mL of medium. Samples were tested at 0, 0.5, 1, 2, 4 and 24 hours (Klein, AAPS J., 2010, 12, 397-406).
as §2

tlast [1]: 8 h | AUC(0-t) ([1]; rat): 1.4 µg·h/mL | Cmax ([1]; rat): 379 ng/mL | tmax ([1]; rat): 2 h | concentration at 8 h ([1]; rat, read-out: Clast): 78.6 ng/mL | D10 [2]: ≥ 4 μm | D50 [2]: 10-40 μm | D95 [2]: ≤ 80 μm | tmax ([3]; room temperature, Experiment 1): 24 h | AUC ([3]; Experiment 1): 1589 µg·h/mL | Cmax ([3]; Experiment 1): 69000 ng/mL | AUC ([3]; Experiment 2): 1310 µg·h/mL | Cmax ([3]; Experiment 2): 86000 ng/mL | tmax ([3]; Experiment 2): 2 h | AUC ([3]; Experiment 3): 1400 µg·h/mL | Cmax ([3]; Experiment 3): 89000 ng/mL | AUC ([4]; Experiment 1): 7.625 µg·h/mL | Cmax ([4]; Experiment 1): 300 ng/mL | AUC ([4]; Experiment 2): 5.75 µg·h/mL | Cmax ([4]; Experiment 2): 300 ng/mL | tmax ([4]; Experiment 2): 24 h | AUC ([4]; Experiment 3): 5.86 µg·h/mL | Cmax ([4]; Experiment 3): 260 ng/mL | tmax ([4]; Experiment 3): 24 h
SMILES: Cc1c(Cl)c(C)[n+]([O-])c(Cl)c1-c1noc(-c2cc(O)c(O)c([N+](=O)[O-])c2)n1 [Opicapone Control, opicapone]
